Each molecule was assayed against T1, Human complement C1s enzyme (Homo sapiens, UniProt P09871) (assay: Human C1s Enzyme Assay). Settings: Table 3; C1s purified from human serum, 1.16 nM; substrate Z-L-Lys-SBzl; read-out: C1s Protease Activity.
T1 construct: purified from human serum, Complement Technology, Inc; purchased Complement Technology, Inc; host or cells: human serum (plasma-derived natural protein)
T1 sequence (P09871 438-688 limits assumed): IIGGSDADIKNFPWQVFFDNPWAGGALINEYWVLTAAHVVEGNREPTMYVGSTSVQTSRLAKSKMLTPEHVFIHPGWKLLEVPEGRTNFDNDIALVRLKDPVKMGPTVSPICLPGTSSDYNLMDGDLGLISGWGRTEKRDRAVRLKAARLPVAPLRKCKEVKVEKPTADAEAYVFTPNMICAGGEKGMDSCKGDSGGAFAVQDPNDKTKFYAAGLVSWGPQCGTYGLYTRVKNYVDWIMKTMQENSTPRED
T1 sequence (P09871 16-437 partner limits assumed): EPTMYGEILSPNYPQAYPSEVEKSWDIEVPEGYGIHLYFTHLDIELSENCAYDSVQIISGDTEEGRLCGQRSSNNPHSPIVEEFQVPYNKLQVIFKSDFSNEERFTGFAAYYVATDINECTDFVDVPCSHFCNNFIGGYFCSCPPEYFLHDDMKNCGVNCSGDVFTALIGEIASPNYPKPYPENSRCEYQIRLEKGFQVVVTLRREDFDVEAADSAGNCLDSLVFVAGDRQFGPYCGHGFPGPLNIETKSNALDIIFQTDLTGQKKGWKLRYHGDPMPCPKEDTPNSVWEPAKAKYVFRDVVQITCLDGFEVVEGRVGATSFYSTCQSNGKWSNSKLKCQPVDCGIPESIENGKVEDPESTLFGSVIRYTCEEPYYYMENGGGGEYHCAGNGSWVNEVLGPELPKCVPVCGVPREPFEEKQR
Type: biochemical
How it was run: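 Serum-purified human C1s (1.16 nM) preincubated 5 min at RT with compound in 50 mM Tris, 1 M NaCl, pH 7.5. Z-L-Lys-SBzl and DTNB (100 μM each) then added; A405 followed every 30 s for 30 min. IC50 from nonlinear regression of reaction rates versus compound concentration.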
`C[C@@]12C[C@@H]1N(C(=O)CNC(=O)c1ccc(Oc3ccc(S(F)(F)(F)(F)F)cc3)cc1)[C@H](C(=O)NCc1cc(C(=N)N)cs1)C2` [Compound 95, (1S,3S,5S)-N-((4-carbamimidoylthiophen-2-yl)methyl)-5-methyl-2-((4-(4-(pentafluoro-16-sulfaneyl)phenoxy)benzoyl)glycyl)-2-azabicyclo[3.1.0]hexane-3-carboxamide] was tested, and the IC50 was under 100 nM. In the case of `N=C(N)c1csc(CNC(=O)[C@@H]2C[C@@H](c3ccccc3)CN2C(=O)CNC(=O)c2ccc(Oc3ccccc3)cc2)c1` [Compound 97, (2S,4S)-N-((4-carbamimidoylthiophen-2-yl)methyl)-1-((4-phenoxybenzoyl)glycyl)-4-phenylpyrrolidine-2-carboxamide], the IC50 is reported as under 100 nM. With `N=C(N)c1csc(CNC(=O)[C@@H]2C[C@@H](C(F)(F)F)CN2C(=O)CNC(=O)c2ccc(Oc3ccccc3)cc2)c1` [Compound 98, (2S,4R)-N-((4-carbamimidoylthiophen-2-yl)methyl)-1-((4-phenoxybenzoyl)glycyl)-4-(trifluoromethyl)pyrrolidine-2-carboxamide] the IC50 was under 100 nM. `N=C(N)c1csc(CNC(=O)[C@@H]2C[C@H](C(F)(F)F)CN2C(=O)CNC(=O)c2ccc(Oc3ccccc3)cc2)c1` [Compound 100, (2S,4S)-N-((4-carbamimidoylthiophen-2-yl)methyl)-1-((4-phenoxybenzoyl)glycyl)-4-(trifluoromethyl)pyrrolidine-2-carboxamide] gave an IC50 of under 100 nM. `N=C(N)c1csc(CNC(=O)[C@@H]2C[C@@H](OC(F)F)CN2C(=O)CNC(=O)c2ccc(Oc3ccccc3)cc2)c1` [Compound 101, (2S,4R)-N-((4-carbamimidoylthiophen-2-yl)methyl)-4-(difluoromethoxy)-1-((4-phenoxybenzoyl)glycyl)pyrrolidine-2-carboxamide] showed an IC50 of under 100 nM. For `N=C(N)c1csc(CNC(=O)[C@@H]2C[C@@H]3CCCC[C@@H]3N2C(=O)CNC(=O)c2ccc(Oc3ccccc3)cc2)c1` [Compound 102, (2S,3aS,7aS)-N-((4-carbamimidoylthiophen-2-yl)methyl)-1-((4-phenoxybenzoyl)glycyl)octahydro-1H-indole-2-carboxamide], the IC50 was under 100 nM. For `N=C(N)c1csc(CNC(=O)[C@@H]2C[C@H](Oc3ccc(F)cc3)CN2C(=O)CNC(=O)c2ccc(Oc3ccccc3)cc2)c1` [Compound 103, (2S,4S)-N-((4-carbamimidoylthiophen-2-yl)methyl)-4-(4-fluorophenoxy)-1-((4-phenoxybenzoyl)glycyl)pyrrolidine-2-carboxamide], the IC50 was under 100 nM. Molecule `Cc1cccc(O[C@H]2C[C@@H](C(=O)NCc3cc(C(=N)N)cs3)N(C(=O)CNC(=O)c3ccc(Oc4ccccc4)cc3)C2)c1` [Compound 104, (2S,4S)-N-((4-carbamimidoylthiophen-2-yl)methyl)-1-((4-phenoxybenzoyl)glycyl)-4-(m-tolyloxy)pyrrolidine-2-carboxamide] has an IC50 of under 100 nM. Molecule `Cc1ccccc1O[C@H]1C[C@@H](C(=O)NCc2cc(C(=N)N)cs2)N(C(=O)CNC(=O)c2ccc(Oc3ccccc3)cc2)C1` [Compound 105, (2S,4S)-N-((4-carbamimidoylthiophen-2-yl)methyl)-1-((4-phenoxybenzoyl)glycyl)-4-(o-tolyloxy)pyrrolidine-2-carboxamide] has an IC50 of under 100 nM. `N=C(N)c1csc(CNC(=O)[C@@H]2C[C@](F)(CF)CN2C(=O)CNC(=O)c2ccc(Oc3ccccc3)cc2)c1` [Compound 106, (2S,4R)-N-((4-carbamimidoylthiophen-2-yl)methyl)-4-fluoro-4-(fluoromethyl)-1-((4-phenoxybenzoyl)glycyl)pyrrolidine-2-carboxamide] showed an IC50 of under 100 nM. With `C[C@@]12C[C@@H]1N(C(=O)CNC(=O)c1ccc(Oc3ccccc3)cc1)[C@H](C(=O)NCc1ccc(C(=N)N)s1)C2` [Compound 107, (1S,3S,5S)-N-((5-carbamimidoylthiophen-2-yl)methyl)-5-methyl-2-((4-phenoxybenzoyl)glycyl)-2-azabicyclo[3.1.0]hexane-3-carboxamide] the IC50 was under 100 nM. `N=C(N)c1csc(CNC(=O)[C@@H]2C[C@H](Oc3cccc(F)c3)CN2C(=O)CNC(=O)c2ccc(Oc3ccccc3)cc2)c1` [Compound 108, (2S,4S)-N-((4-carbamimidoylthiophen-2-yl)methyl)-4-(3-fluorophenoxy)-1-((4-phenoxybenzoyl)glycyl)pyrrolidine-2-carboxamide] was tested, and the IC50 was under 100 nM.

Source: patent US12479856B2, “Pharmaceutical compounds for the treatment of complement mediated disorders” (Achillion Pharmaceuticals, Inc., priority 2019, dated 2025)
